Laboratory results taken from US11191835B2, “Chlorin-vitamin conjugates” (priority 2018, dated 2021).
Read-outs that look alike come from different tables or passages of the source.

Experiments:
[1] = test system: triple-positive breast cancer cell ZR-75-1; experiment: Fluorescence microscopy (Hoechst 33258), ZR-75-1 cells; type: cell-based, Human; conditions: 24 h compound treatment followed by 2 min light irradiation (1.92 J cm^−2)
Description: Fluorescence microscopy was used to visualize and examine the cell morphological features before and after photosensitization. Specific cellular characteristics can identify the mechanism of cell death which can be exploited to understand therapeutic outcome. […] After aspirating the old growth media, 1 mL of the compound or photosensitizer (with varying concentrations) in fresh pre-warmed media at 37° C. was added to each well. […] Images were recorded using fluorescence microscopy (DAPI for Hoechst 350-390 nm excitation and 460-490 nm emission filters) using an upright fluorescence microscope with Retiga imaging 2000R (Nikon Optiphot-2, 20× and 40×) and an image processing Nikon NIS-Elements V4.0 Qimaging software.

[2] = test system: Mouse colon carcinoma cell line CT26.WT; experiment: Cell survival (MTT) assay, CT26 colon carcinoma cells; type: cell-based
Description: Mouse colon carcinoma cell line CT26. WT was purchased from the American Type Culture Collection (ATCC CRL-2638). […] During the incubation period, growth media was changed once with fresh pre-warmed medium (pH 7.2). To harvest the cells, old growth media was aspirated and 5 mL 0.25% trypsin solution (Thermo Sci Hyclone, Waltham, Mass., USA) were added. The cells were incubated for 10 min and gently scraped to detach cells from the flask walls. Clumped cells were broken up gently and 1 mL of the trypsinized cell homogenate suspension was transferred into a new T75 cell culture flask containing pre-warmed media (20 mL) for further culturing. […] After 24 h treatment, old growth media containing the PS or compounds were aspirated out and replaced with fresh media. Plates were then positioned below a non-coherent LumaCare LC-122 650 nm light source for 1, 2, and 5 min at an energy fluence rate of 16 mW/cm^2 (measured using a Newport optical power meter Model 840). Unirradiated cells served as control samples. […] Samples were allowed to incubate for additional 2 h, after which dark blue crystals formed. DMSO was added to each well and plates were shaken at room temperature for 1 h to dissolve the purplish-blue formazan crystals. Absorbance values at 490 nm were measured on a microplate reader (BioRad 550). Cell survival was calculated based on the absorbance of the untreated cells alone (as control) and were directly proportional to the number of viable cells in culture. Results were reported as average of triplicate measurements.

[3] = test system: triple-negative breast cancer cell BT549; type: cell-based; set-up: % Cell Survival: concentration or dose not given beside the values; conditions: for % Cell Survival: BT549, 24 h compound treatment followed by 2 min light irradiation (1.92 J cm^−2); for dark toxicity / dark toxicity ranking: absence of light
Description: (§1) Human mammary epithelial carcinoma cell lines purchased from the American Type Culture Collection ZR-75-1 (ATCC CRL-1500) and BT-549 (ATCC HTB-122) were cultured according to ATCC protocol. Briefly, ZR-75-1 cells were grown in RPMI 1640 medium (ATCC), while BT-549 were grown in RPMI 1640 containing 0.023 IU/mL insulin. Both were supplemented with 10% fetal bovine serum (FBS). Cells were grown to 80-90% confluence in 75-cm^2 culture flasks (Corning) for 4-5 days in a humidified incubator (Fisher Scientific Isotemp) with 5% CO2 at 37° C. During the incubation period, growth media was changed once with fresh pre-warmed media (pH 7.2). To harvest the cells, old growth media was aspirated out and 3 mL 0.25% trypsin solution (Thermo Sci Hyclone) were added. The cells were incubated for 5 min and the cell pellet after centrifugation was resuspended in 3 mL media, broken up gently, then 1 ml of suspended cells was transferred into a new T75 cell culture flask containing pre-warmed media (20 mL) for further culturing.
(§2) Cells were grown to confluence in a 96-well plate (5×10^4 cells/well) and treated for 24 h with compounds or photosensitizers of varying concentrations ranging from 5 nM to 50 μM) in growth media from a stock solution of 10 mM in DMSO (dimethyl sulfoxide, Fisher). After 24 h treatment, old growth media containing the PS or compounds were aspirated out and replaced with fresh media. Plates were then positioned below a non-coherent LumaCare LC-122 650 nm light source for 1, 2, and 5 min at an energy fluence rate of 16 mW/cm^2 (measured using a Newport optical power meter Model 840). Unirradiated cells served as control samples. The following day, cells were washed with pre-warmed PBS, and MTT (3-[4,5-dimethyl-thiazol-2-yl]-2.5-diphenyltetrazolium bromide, Sigma, 0.3 mg/mL) in PBS was added to each well. Samples were allowed to incubate for additional 2 h, after which dark blue crystals formed. DMSO was added to each well and plates were shaken at room temperature for 1 h to dissolve the purplish-blue formazan crystals. Absorbance values at 490 nm were measured on a microplate reader (BioRad 550). Cell survival was calculated based on the absorbance of the untreated cells alone (as control) and were directly proportional to the number of viable cells in culture. Results were reported as average of triplicate measurements.

[4] = test system: triple-positive breast cancer cell ZR-75-1; type: cell-based; set-up: % Cell Survival: concentration or dose not given beside the values; conditions: for % Cell Survival: ZR-75-1, 24 h compound treatment followed by 2 min light irradiation (1.92 J cm^−2); for dark toxicity ranking / dark toxicity: unirradiated TPBC cells
Description: as §1, §2

Compound | Morphological Features [1] | % Cell Survival [3] [%] | dark toxicity ([3]; TNBC cells, 24-hr treatment) | dark toxicity ranking ([3]; TNBC cells) | % Cell Survival [4] [%] | dark toxicity ranking [4] | dark toxicity [4] | further results
13^1-Hexamethylenediaminyl-Biotinylchlorin e6 dimethyl ester indium (III) chloride [Example 5] | Cell debris apparent | 56 | exhibited dark toxicity | Example 3 (most phototoxic in the dark)>Example 1>Example 6>Example 5 | 12.9 | Example 3>Example 5>MePheo>Example 6 | – | decrease in cell proliferation of colon cancer cells ([2]; irradiation for 2 min, compared to MePheo, Example 1 or Example 3): 30%
13^1-Hexamethylenediaminyl-bexarotenylchlorin e6 dimethyl ester [Example 2] | – | 7.7 | – | – | 4.6 | – | – | –
13^1-Hexamethylenediaminyl-bexarotenylchlorin e6 dimethyl ester indium (III) chloride [Example 6] | Clustered cells, intact nuclei | 33 | exhibited dark toxicity | Example 3 (most phototoxic in the dark)>Example 1>Example 6>Example 5 | 80 | Example 3>Example 5>MePheo>Example 6 | – | –
C=C(c1ccc(C(=O)O)cc1)c1cc2c(cc1C)C(C)(C)CCC2(C)C [Bexarotene, reference compound] | – | 111 | – | – | 110 | – | – | –
O=C(O)CCCC[C@@H]1SC[C@@H]2NC(=O)N[C@@H]21 [Biotine, biotin, reference compound] | – | 116 | – | – | 99 | – | – | toxicity to colon cancer cells (cell viability assay) ([2]; in the dark and in the presence of light, concentration up to 50 μM): not toxic
C=Cc1c(C)c2cc3nc(c(CC(=O)OC)c4[nH]c(cc5nc(cc1[nH]2)C(C)=C5CC)c(C)c4C(=O)NCCCCCCNC(=O)CCCC[C@@H]1SC[C@@H]2NC(=O)N[C@@H]21)[C@@H](CCC(=O)OC)[C@@H]3C [Example 1, 13^1-Hexamethylenediaminyl-biotinylchlorin e6 dimethyl ester] | – | 8.1 | exhibited in vitro dark cytotoxicity at 5 μM concentration | Example 3 (most phototoxic in the dark)>Example 1>Example 6>Example 5 | 4.2 | – | no toxicity | increase of cell inhibition upon irradiation compared to methyl pheophorbide (MePheo) ([2]; colon cancer cells, upon irradiation): approximately 19%; phototoxicity at nanomolar concentrations ([3]; TNBC cells, 100 nM to 200 nM, light activation): showed a light-activation dose response; cell inhibition ([3]; TNBC cells, 100 nM, 5 min light dose (4.8 J cm^−2)): 60%; reduction in cell proliferation ([3]; TNBC cells, 200 nM, lowest light dose used): ~50%; cell survival in the absence of light ([3]; TNBC cells, 5 μM, 24-hr treatment, no light): 86%; dark toxicity ([4]; listed as Example l): no dark toxicity
C=Cc1c(C)c2cc3nc(c4c5[nH]c(cc6nc(cc1[nH]2)C(C)=C6CC)c(C)c5C(=O)[C@@H]4C(=O)OC)[C@@H](CCC(=O)OC)[C@@H]3C [Methyl pheophorbide a, reference compound] | – | 21 | no significant dark response | – | 3.4 | Example 3>Example 5>MePheo>Example 6 | – | –
Zn(II)-13^1-Hexamethylenediaminyl-Biotinylchlorin e6 dimethyl ester [Example 3] | – | 16 | exhibited dark toxicity | Example 3 (most phototoxic in the dark)>Example 1>Example 6>Example 5 | 15.4 | Example 3>Example 5>MePheo>Example 6 | most phototoxic in the dark | –
Zn(II)-13^1-Hexamethylenediaminyl-bexarotenylchlorin e6 dimethyl ester [Example 4] | Clustered cells, intact nuclei | 108 | no significant dark response | – | 105 | – | no toxicity | –
